The results in this text go back to patent US7592366B2, “Therapeutic compounds” (Allergan, Inc., priority 2006, dated 2009).

What all share (assay type): cell-based
One test addresses T1, hTP (Homo sapiens, UniProt P21731).
T1 construct: expressed in transfected cells; host or cells: HEK-293(EBNA)
T1 sequence (P21731 1-343): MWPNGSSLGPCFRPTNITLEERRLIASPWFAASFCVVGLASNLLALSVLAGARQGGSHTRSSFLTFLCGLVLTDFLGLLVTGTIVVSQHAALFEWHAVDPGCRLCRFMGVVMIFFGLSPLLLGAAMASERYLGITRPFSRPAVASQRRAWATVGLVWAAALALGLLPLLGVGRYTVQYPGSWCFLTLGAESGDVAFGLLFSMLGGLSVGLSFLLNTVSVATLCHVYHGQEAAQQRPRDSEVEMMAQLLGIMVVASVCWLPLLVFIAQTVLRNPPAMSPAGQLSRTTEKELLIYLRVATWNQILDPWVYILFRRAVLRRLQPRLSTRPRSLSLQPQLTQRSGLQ
The experiment in a line: FLIPR calcium signal, hTP. The settings on record: read-out: Other Receptors (EC50 in nM) hTP. As to the method: (§1) HEK-293(EBNA) cells, stably expressing one type or subtype of recombinant human prostaglandin receptors (prostaglandin receptors expressed: hDP/Gqs5; hEP1; hEP2/Gqs5; hEP3A/Gqi5; hEP4/Gqs5; hFP; hIP; hTP), were cultured in 100 mm culture dishes in high-glucose DMEM medium containing 10% fetal bovine serum, 2 mM l-glutamine, 250 μg/ml geneticin (G418) and 200 μg/ml hygromycin B as selection markers, and 100 units/ml penicillin G, 100 μg/ml streptomycin and 0.25 μg/ml amphotericin B.
(§2) Cells were seeded at a density of 5×10^4 cells per well in Biocoat® Poly-D-lysine-coated black-wall, clear-bottom 96-well plates (Becton-Dickinson) and allowed to attach overnight in an incubator at 37° C. Cells were then washed two times with HBSS-HEPES buffer (Hanks Balanced Salt Solution without bicarbonate and phenol red, 20 mM HEPES, pH 7.4) using a Denley Cellwash plate washer (Labsystems). After 45 minutes of dye-loading in the dark, using the calcium-sensitive dye Fluo-4 […] at a final concentration of 2 μM, plates were washed four times with HBSS-HEPES buffer to remove excess dye leaving 100 μl in each well. Plates were re-equilibrated to 37° C. for a few minutes.
(§3) Cells were excited with an Argon laser at 488 nm, and emission was measured through a 510-570 nm bandwidth emission filter (FLIPR™, Molecular Devices, Sunnyvale, Calif.). Drug solution was added in a 50 μl volume to each well to give the desired final concentration. The peak increase in fluorescence intensity was recorded for each well. On each plate, four wells each served as negative (HBSS-HEPES buffer) and positive controls (standard agonists: BW245C (hDP); PGE2 (hEP1; hEP2/Gqs5; hEP3A/Gqi5; hEP4/Gqs5); PGF2α (hFP); carbacyclin (hIP); U-46619 (hTP), depending on receptor). The peak fluorescence change in each drug-containing well was then expressed relative to the controls.
Compounds were tested in a high-throughput (HTS) or concentration-response (CoRe) format. […]

The target of the next test is T2, hEP4/Gqs5 (Homo sapiens, UniProt P35408).
T2 construct: expressed in transfected cells; host or cells: HEK-293(EBNA)
T2 sequence (P35408 whole entry): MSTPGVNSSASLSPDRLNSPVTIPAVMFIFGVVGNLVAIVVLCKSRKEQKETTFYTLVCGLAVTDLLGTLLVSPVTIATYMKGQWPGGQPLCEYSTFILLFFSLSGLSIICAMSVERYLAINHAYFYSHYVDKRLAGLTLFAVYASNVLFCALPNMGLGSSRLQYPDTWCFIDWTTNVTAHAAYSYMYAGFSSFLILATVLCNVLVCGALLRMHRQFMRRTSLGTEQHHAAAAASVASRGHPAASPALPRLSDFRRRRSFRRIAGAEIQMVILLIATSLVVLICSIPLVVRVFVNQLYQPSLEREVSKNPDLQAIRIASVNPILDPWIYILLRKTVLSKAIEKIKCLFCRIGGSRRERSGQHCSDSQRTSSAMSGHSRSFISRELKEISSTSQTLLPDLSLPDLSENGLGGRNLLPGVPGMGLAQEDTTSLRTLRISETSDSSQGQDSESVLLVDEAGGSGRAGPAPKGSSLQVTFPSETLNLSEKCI
Description: FLIPR calcium signal, EP4. The settings on record: HEK-293(EBNA) cells. How it is done: as §1, §2, §3
Compounds were tested in a high-throughput (HTS) or concentration-response (CoRe) format. In the HTS format, forty-four compounds per plate were examined in duplicates at a concentration of 10^−5 M. To generate concentration-response curves, four compounds per plate were tested in duplicates in a concentration range between 10^−5 and 10^−11 M. The duplicate values were averaged. In either, HTS or CoRe format each compound was tested on at least 3 separate plates using cells from different passages to give an n≧3.

In the next test the target is T3, hFP (Homo sapiens, UniProt P43088).
T3 construct: expressed in transfected cells; host or cells: HEK-293(EBNA)
T3 sequence (P43088 whole entry): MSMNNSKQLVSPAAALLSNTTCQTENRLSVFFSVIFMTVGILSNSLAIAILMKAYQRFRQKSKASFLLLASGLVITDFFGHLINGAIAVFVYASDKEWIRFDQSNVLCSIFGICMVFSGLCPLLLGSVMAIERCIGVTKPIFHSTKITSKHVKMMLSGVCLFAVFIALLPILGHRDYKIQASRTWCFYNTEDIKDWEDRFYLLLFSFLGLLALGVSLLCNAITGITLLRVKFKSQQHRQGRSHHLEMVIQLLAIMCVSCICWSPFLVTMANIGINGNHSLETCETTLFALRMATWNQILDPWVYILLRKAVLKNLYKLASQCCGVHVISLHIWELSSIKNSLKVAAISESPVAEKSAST
Description: FLIPR calcium signal, hFP. The settings on record: read-out: Other Receptors (EC50 in nM) hFP. As to the method: as §1
Cells were seeded at a density of 5×10^4 cells per well in Biocoat® Poly-D-lysine-coated black-wall, clear-bottom 96-well plates (Becton-Dickinson) and allowed to attach overnight in an incubator at 37° C. Cells were then washed two times with HBSS-HEPES buffer (Hanks Balanced Salt Solution without bicarbonate and phenol red, 20 mM HEPES, pH 7.4) using a Denley Cellwash plate washer (Labsystems). […]
Cells were excited with an Argon laser at 488 nm, and emission was measured through a 510-570 nm bandwidth emission filter (FLIPR™, Molecular Devices, Sunnyvale, Calif.). […] The peak increase in fluorescence intensity was recorded for each well. […] The peak fluorescence change in each drug-containing well was then expressed relative to the controls. […]

Regarding `O=C(O)c1ccc(CCC[C@@H]2[C@@H](CCc3cc(F)cc(F)c3)[C@H](O)C[C@H]2Cl)s1` [11d, 5-(3-((1R,2R,3R,5R)-5-chloro-2-(3,5-difluorophenethyl)-3-hydroxycyclopentyl)propyl)thiophene-2-carboxylic acid], the EC50 (in general, the midpoint of the concentration-response curve) was 64 nM on hTP and over 10 µM on hEP4/Gqs5.
With `O=C(O)c1ccc(CCC[C@@H]2[C@@H](CCc3cc(Cl)cc(Cl)c3)[C@@H](O)C[C@H]2Cl)s1` [compound 17, 5-(3-((1R,2R,3S,5R)-5-chloro-2-(3,5-dichlorophenethyl)-3-hydroxycyclopenty)propyl)thiophene-2-carboxylic acid], on hFP, the EC50 is over 10000 nM.
